Laboratory results as given in ChEMBL document CHEMBL3351465, “Discovery of functionalized bisimidazoles bearing cyclic aliphatic-phenyl motifs as HCV NS5A inhibitors” (Bioorg Med Chem Lett, 2014).
≈ marks a conversion by molar mass, not a printed value.

Assays:
[1] = Tmax in Sprague-Dawley rat at 10 mg/kg, po; format: ADME, organism-based; design: dose 10 mg/kg, route oral; settings: in vivo
[2] = Cmax in Sprague-Dawley rat at 10 mg/kg, po; format: ADME, organism-based; design: dose 10 mg/kg, route oral; settings: in vivo
[3] = AUClast in Sprague-Dawley rat at 10 mg/kg, po; format: ADME, organism-based; design: time 0 - last, dose 10 mg/kg, route oral; settings: plasma
[4] = Inhibition of NS5A in HCV genotype-1a infected in human HuH7 cells by luciferase reporter gene assay; format: cell-based, Hepatitis C virus subtype 1a; settings: Hepatitis C virus, Huh-7
[5] = Inhibition of NS5A in HCV genotype-1b infected in human HuH7 cells by luciferase reporter gene assay; format: cell-based, Hepatitis C virus subtype 1b; settings: Hepatitis C virus, Huh-7
[6] = Solubility of the compound at pH 7.4 by UV detection method; format: physicochemical; settings: buffer
[7] = Inhibition of HCV genotype-1a NS5A; design: species or system Hepatitis C virus subtype 1a
[8] = Inhibition of HCV genotype-1b NS5A; design: species or system Hepatitis C virus subtype 1b
[9] = Volume of distribution at steady state in Sprague-Dawley rat at 1 mg/kg, iv; format: ADME, organism-based; design: dose 1 mg/kg, route intravenous; settings: in vivo, read-out: Vdss
[10] = Half life in Sprague-Dawley rat at 1 mg/kg, iv; format: ADME, organism-based; design: dose 1 mg/kg, route intravenous; settings: in vivo
[11] = AUClast in Sprague-Dawley rat at 1 mg/kg, iv; format: ADME, organism-based; design: time 0 - last, dose 1 mg/kg, route intravenous; settings: plasma
[12] = Tmax in Sprague-Dawley rat at 5 mg/kg, po; format: ADME, organism-based; design: dose 5 mg/kg, route oral; settings: in vivo
[13] = Cmax in Sprague-Dawley rat at 5 mg/kg, po; format: ADME, organism-based; design: dose 5 mg/kg, route oral; settings: in vivo
[14] = AUClast in Sprague-Dawley rat at 5 mg/kg, po; format: ADME, organism-based; design: time 0 - last, dose 5 mg/kg, route oral; settings: plasma
[15] = Oral bioavailability in Sprague-Dawley rat at 5 mg/kg; format: ADME, organism-based; settings: in vivo
[16] = Drug uptake in Sprague-Dawley rat liver at 5 mg/kg, po after 4 hrs; format: ADME, organism-based; design: dose 5 mg/kg, route oral; settings: read-out: Drug uptake
[17] = Plasma concentration in Sprague-Dawley rat […] at 5 mg/kg, po after 4 hrs; format: ADME, organism-based; design: dose 5 mg/kg, route oral
[18] = Clearance in Sprague-Dawley rat at 1 mg/kg, iv; format: ADME, organism-based; design: dose 1 mg/kg, route intravenous; settings: in vivo

Row | EC50 [4] [nM] | EC50 [5] [nM] | Structure (SMILES) | also measured
1 | 1.4 | 0.11 | COC(=O)N[C@@H](C(=O)N1CCC[C@H]1c1ncc(-c2ccc([C@H]3CC[C@H](c4cnc([C@@H]5CCCN5C(=O)[C@@H](c5ccccc5)N(C)C)[nH]4)CC3)cc2)[nH]1)c1ccccc1 | Tmax [1]: 1.67 h; Cmax [2]: 54.1 ng/mL; AUC(0-t) [3]: 255 ng·h/mL
2 | 5.2 | 0.061 | COC(=O)N[C@@H](C(=O)N1CCC[C@H]1c1ncc(-c2ccc([C@H]3CC[C@H](c4cnc([C@@H]5CCCN5C(=O)[C@H](NC(=O)OC)c5ccccc5)[nH]4)CC3)cc2)[nH]1)c1ccccc1 | –
3 | > 100 | 0.081 | COC(=O)N[C@H](C(=O)N1CCC[C@H]1c1ncc(-c2cc(F)c(N3CCC(C)(c4cnc([C@@H]5CCCN5C(=O)[C@@H](NC(=O)OC)C(C)C)[nH]4)CC3)c(F)c2)[nH]1)C(C)C | –
4 | 3.8 | 0.054 | COC(=O)N[C@H](C(=O)N1CCC[C@H]1c1ncc(-c2cc(F)c(N3CCC(c4cnc([C@@H]5CCCN5C(=O)[C@@H](NC(=O)OC)C(C)C)[nH]4)CC3)c(F)c2)[nH]1)C(C)C | solubility [6]: 87.5 µg/mL (≈ 112 µM)
5 | 0.079 | 0.009 | COC(=O)N[C@@H](C(=O)N1CCC[C@H]1c1ncc(-c2ccc(-c3ccc(-c4cnc([C@@H]5CCCN5C(=O)[C@H](NC(=O)OC)c5ccccc5)[nH]4)cc3)cc2)[nH]1)c1ccccc1 | EC50 [7]: 0.05 nM; EC50 [8]: 0.009 nM
6 | 4.4 | 0.088 | COC(=O)N[C@H](C(=O)N1CCC[C@H]1c1ncc([C@H]2CC[C@H](c3ccc(-c4cnc([C@@H]5CCCN5C(=O)[C@H](NC(=O)OC)c5ccccc5)[nH]4)cc3)CC2)[nH]1)C(C)C | –
7 | 39 | 0.27 | COC(=O)N[C@H](C(=O)N[C@@H](C)c1ncc(-c2cc(F)c(N3CCC(c4cnc([C@@H]5CCCN5C(=O)[C@@H](NC(=O)OC)C(C)C)[nH]4)CC3)c(F)c2)[nH]1)C(C)C | –
8 | 2 | 0.05 | COC(=O)N[C@H](C(=O)N1CCC[C@H]1c1ncc(-c2ccc([C@H]3CC[C@H](c4cnc([C@@H]5CCCN5C(=O)[C@@H](NC(=O)OC)C(C)C)[nH]4)CC3)cc2)[nH]1)C(C)C | Vd [9]: 1.53 L/kg; half-life [10]: 1.33 h; AUC(0-t) [11]: 706 ng·h/mL; Tmax [12]: 0.67 h; Cmax [13]: 554 ng/mL; AUC(0-t) [14]: 1540 ng·h/mL; bioavailability [15]: 44.2%; concentration at 4 h [16]: 665 ng/mL; concentration at 4 h [17]: 108 ng/mL; solubility [6]: 66.3 µg/mL (≈ 89 µM); clearance [18]: 23.7 mL/min/kg
9 | > 100 | 0.54 | COC(=O)N[C@H](C(=O)N(C)[C@@H](C)c1ncc(C2CCN(c3c(F)cc(-c4cnc([C@@H]5CCCN5C(=O)[C@@H](NC(=O)OC)C(C)C)[nH]4)cc3F)CC2)[nH]1)C(C)C | –
10 | 14 | 0.033 | COC(=O)N[C@@H](C(=O)N1CCC[C@H]1c1ncc(-c2cc(F)c(N3CCC(c4cnc([C@@H]5CCCN5C(=O)[C@H](NC(=O)OC)c5ccccc5)[nH]4)CC3)c(F)c2)[nH]1)c1ccccc1 | –
11 | 25 | 0.07 | COC(=O)N[C@H](C(=O)N[C@H](c1ncc(C2CCN(c3c(F)cc(-c4cnc([C@@H]5CCCN5C(=O)[C@@H](NC(=O)OC)C(C)C)[nH]4)cc3F)CC2)[nH]1)C(C)C)C(C)C | –
12 | 1.4 | 0.19 | COC(=O)N[C@H](C(=O)N1CCC[C@H]1c1ncc(-c2ccc([C@H]3CC[C@H](c4cnc([C@@H]5CCCN5C(=O)[C@@H](NC(=O)OC)[C@@H](C)OC)[nH]4)CC3)cc2)[nH]1)[C@@H](C)OC | –
13 | 7.2 | 0.33 | COC(=O)N[C@@H](C)C(=O)N1CCC[C@H]1c1ncc(-c2ccc([C@H]3CC[C@H](c4cnc([C@@H]5CCCN5C(=O)[C@H](C)NC(=O)OC)[nH]4)CC3)cc2)[nH]1 | –
14 | > 100 | > 3.7 | COC(=O)N[C@@H](C(=O)N1CCC[C@H]1c1ncc(-c2cc(F)c(N3CCC(c4cnc([C@@H]5CCCN5C(=O)[C@H](NC(=O)OC)C(C)C)[nH]4)CC3)c(F)c2)[nH]1)C(C)C | –
